{
  "source": "patent US9593305B2",
  "about": "“Differentiation of pluripotent stem cells” (Janssen Biotech, Inc., priority 2008, dated 2017)",
  "format_in_all_cases": "cell-based",
  "key": {"[1]": {"test_system": "H1 human embryonic stem cells", "assay": "Step-wise differentiation, FACS for CXCR4 after step 1 (Example 16)", "details": "100 ng/ml GDF-8 with compound on first day, compared to activin A and Wnt3a", "procedure": "(§1) The assay was initiated by aspirating the culture medium from each well and adding back an aliquot (0.5 ml) of test medium. Test conditions for the first step of differentiation were conducted over a three-day period, feeding daily by aspirating and replacing the medium from each well with fresh test medium. On the first day of assay, 100 ng/ml activin A (PeproTech; Cat #120-14) or 100 ng/ml GDF-8 (R&D Systems, Cat #788-G8) was added to respective assay wells where each growth factor was diluted into RPMI-1640 medium (Invitrogen; Cat #: 22400) with 2% Albumin Bovine Fraction V, Fatty Acid Free (FAF BSA) (Proliant Inc. Cat #: SKU 68700), and 20 ng/ml Wnt3a (R&D Systems; Cat #1324-WN/CF). On the second day of assay, 100 ng/ml activin A or 100 ng/ml GDF-8 was diluted into RPMI-1640 medium supplemented with 2% FAF BSA without Wnt3a. In some test samples using GDF-8, Wnt3a was replaced with a small molecule compound, added only on the first day of definitive endoderm differentiation. These small molecules included Compound 19 (2.5 μM in assay), Compound 202 (2.5 μM in assay), Compound 40 (2.5 μM in assay), or a commercially available GSK3 inhibitor BIO (0.5 μM in assay) (EMD Chemicals, Inc.; Cat #361550). At the conclusion of the first step of differentiation, cells from some wells were harvested for flow cytometry analysis to evaluate levels of CXCR4, a marker of definitive endoderm formation. Additional wells were harvested for RT-PCR analysis to measure other markers of differentiation.\nCells for FACS analysis were blocked in a 1:5 solution of 0.5% human gamma-globulin (Sigma; Cat#G-4386) in PBS (Invitrogen; Cat #14040-133): BD FACS staining buffer—BSA (BD; Cat #554657) for 15 minutes at 4° C. Cells were then stained with antibodies for CD9 PE (BD; Cat #555372), CD99 PE (Caltag; #MHCD9904) and CXCR4 APC(R&D Systems; Cat#FAB 173A) for 30 minutes at 4° C. After a series of washes in BD FACS staining buffer, the cells were stained for viability with 7-AAD (BD; Cat #559925) and run on a BD FACSArray. […]"}, "[2]": {"test_system": "H1 human embryonic stem cells", "assay": "Step-wise differentiation, high content analysis of SOX17, cell number, insulin, glucagon (Example 16)", "details": "GDF-8 with compound in step 1, relative to activin A and Wnt3a", "procedure": "as §1\nStep 5 of the differentiation protocol was carried out over seven days in DMEM-high glucose with 0.1% Albumax, 0.5× Insulin-Transferrin-Selenium, and 1 μM Alk 5 inhibitor. […]\nImaging was performed using an IN Cell Analyzer 1000 (GE Healthcare) utilizing the 51008bs dichroic for cells stained with Hoechst 33342 and Alexa Fluor 488. […] Segmentation for the nuclei was determined based on gray-scale levels (baseline range 100-300) and nuclear size. Averages and standard deviations were calculated for each replicate data set. […]"}, "[3]": {"test_system": "H1 human embryonic stem cells", "assay": "Definitive endoderm formation with TGF superfamily members, SOX17 and cell number (Example 14)", "details": "dose titration with Wnt3a, Compound 34, or both", "procedure": "Clusters were centrifuged at low speed to collect a cell pellet and remove residual dispase. […] All human embryonic stem cell lines were maintained at passage numbers less than 50 and routinely evaluated for normal karyotype and absence of mycoplasma.\nCells were washed again three times with PBS and blocked with 4% chicken serum (Invitrogen; Cat #16110082) in PBS for 30 minutes at room temperature. […] Plates were washed once with PBS and left in 100 μl/well PBS for imaging."}, "[4]": {"test_system": "H1 human embryonic stem cells", "assay": "Secondary assay: compound combined with individual growth factors or small molecules, no activin A (Example 5, Table 4)", "details": "agent combined with 2.5 μM compound and Wnt3a, no activin A", "procedure": "Clusters of H1 human embryonic stem cells were grown on reduced growth factor […]™ (Invitrogen; Cat #356231)-coated tissue culture plastic. Cells were passaged using collagenase (Invitrogen; Cat #Cat #17104-019) treatment and gentle scraping, washed to remove residual enzyme, and plated with even dispersal at a ratio of 1:1 (surface area) on reduced growth factor […]™-coated 96-well black plates (Packard ViewPlates; PerkinElmer; Cat #6005182) using volumes of 100 μl/well. Cells were allowed to attach as clusters and then recover log phase growth over a 1 to 3 day period, feeding daily with MEF conditioned medium supplemented with 8 ng/ml bFGF (R&D Systems; Cat #233-FB). Plates were maintained at 37° C., 5% CO2 in a humidified box throughout the duration of assay.\nOther agents tested were purchased as follows: BMP-7 (Sigma; Cat #B1434), LY294002 (Cayman; Cat 70920), PD98059, U0126, U0124 (EMD Biosciences; Cat #453710), muscimol (Tocris; Cat #0289), biuculline (Tocris; Cat #0130), sodium butyrate (Sigma; Cat #B5887). All growth factors were solubilized in PBS with 0.1% BSA (Sigma; Cat #A7888) and stored frozen at −80° C. Small molecules were solubilized in 100% DMSO (Sigma; Cat #D2650) and stored frozen at −80° C. The compounds were available as 5 mM stocks in 96-well plate format, solubilized in 100% DMSO and stored at −80° C. The compounds of the present invention were further diluted to an intermediate concentration of 0.2 mM in 50 mM HEPES (Invitrogen; Cat #15630-080), 20% DMSO and stored at 4° C. All growth factors and inhibitors were prepared in a deep well, 96-well polypropylene plate, diluted to 5× intermediate stocks in DMEM:F12 base medium at the beginning of assay and stored at 4° C.\nA secondary screening assay was conducted, testing in triplicate and feeding on alternate days over the four-day assay timeframe. Assays were initiated by aspirating culture medium from each well followed by three washes in PBS to remove residual growth factors and serum. Test volumes of 80 μl per well were added back containing DMEM:F12 base medium (Invitrogen; Cat #11330-032) supplemented with 0.625% FCS (HyClone; Cat #SH30070.03), 25 ng/ml Wnt3a (R&D Systems), and 3.125 μM compound plus 20 μl 5× stock of growth factor or small molecule to yield a final concentration of 0.5% FCS, 20 ng/ml Wnt3a, and 2.5 μM compound. […] Final assay concentrations of small molecules tested were as follows: muscimol (20 μM), PD98059 (1 μM), LY294002 (2.5 μM), 00124 (1 μM), U0126 (1 μM), sodium butyrate (0.5 mM). Positive control wells (100 μl/well) contained the same base medium supplemented with 0.5% FCS, 20 ng/ml Wnt3a and 100 ng/ml activin A. Negative control wells (100 μl/well) contained the same base medium with 0.5% FCS and 20 ng/ml Wnt3a, omitting activin A.\nOn day 3, wells were aspirated and fed with 80 μl DMEM:F12 base medium supplemented with 2.5% FCS (HyClone) and 3.125 μM cyclic aniline-pyridinotriazine compound plus 20 μl 5× stock of growth factors or small molecules per well to yield a final concentration of 2% FCS and 2.5 μM compound (omitting Wnt3a) and as denoted on day one for all remaining growth factors or small molecules. Positive control wells (100 μl/well) contained the same base medium supplemented with 2% FCS and 100 ng/ml activin A, omitting Wnt3a. Negative control wells (100 μl/well) contained the same base medium with 2% FCS, omitting both activin A and Wnt3a.\nAt the conclusion of four-days of culture, assay plates were washed twice with PBS, fixed with 4% paraformaldehyde (Alexis Biochemical; Cat #ALX-350-011) at room temperature for 20 minutes, then washed three times with PBS and permeabilized with 0.5% Triton X-100 (Sigma; Cat #T8760-2) for 20 minutes at room temperature. Cells were washed again three times with PBS and blocked with 4% chicken serum (Invitrogen; Cat #16110082) in PBS for 30 minutes at room temperature."}},
  "data": [
    {"compound": "O=C1Nc2cc(Br)ccc2/C1=C1/Nc2ccccc2/C1=N\\O", "note": "[GSK3 inhibitor BIO, reference compound]", "values": [
      {"measurement": "percentage of CXCR4 positive cells after step 1", "setting": "[1]", "value": "equivalent or slightly higher percentage of CXCR4 positive cells"},
      {"measurement": "relative cell numbers recovered through differentiation step 5", "setting": "[2]", "value": "decrease in cell number"}
    ]},
    {"compound": "BMP-4: member of the BMP family, R&D Systems", "values": [
      {"measurement": "cell numbers at the conclusion of assay", "setting": "[3]", "value": "significant effect on cell numbers"},
      {"measurement": "induction of SOX17 expression compared to the Wnt3a treatment alone", "setting": "[3]", "value": "weak or negligible"},
      {"measurement": "effect on SOX17 expression", "setting": "[4]", "value": "inhibited or had negligible effects on SOX17 expression"}
    ]}
  ]
}
